Experimental data published in ChEMBL document CHEMBL2069292, “Dammarane glycosides from the root of Machilus yaoshansis” (J Nat Prod, 2012).
The source made the active and inactive calls.

Assays:
HCT-8 = assay: Cytotoxicity against human HCT8 cells at 10 uM after 96 hrs by MTT assay; format: functional, cell-based
BGC-823 = assay: Cytotoxicity against human BGC823 cells at 10 uM after 96 hrs by MTT assay; format: functional, cell-based
[1] = test system: Peritoneal macrophage cell; assay: Inhibition of LPS-induced TNFalpha secretion in C57BL/6J mouse peritoneal macrophages at 10 uM after 24 hrs; format: functional, cell-based
A549 = assay: Cytotoxicity against human A549 cells at 10 uM after 96 hrs by MTT assay; format: functional, cell-based
[2] = molecular target: T1, Tyrosine-protein phosphatase non-receptor type 1 (Homo sapiens) (UniProt P18031); assay: Inhibition of human PTP1B at 10 uM
T1 sequence (whole entry): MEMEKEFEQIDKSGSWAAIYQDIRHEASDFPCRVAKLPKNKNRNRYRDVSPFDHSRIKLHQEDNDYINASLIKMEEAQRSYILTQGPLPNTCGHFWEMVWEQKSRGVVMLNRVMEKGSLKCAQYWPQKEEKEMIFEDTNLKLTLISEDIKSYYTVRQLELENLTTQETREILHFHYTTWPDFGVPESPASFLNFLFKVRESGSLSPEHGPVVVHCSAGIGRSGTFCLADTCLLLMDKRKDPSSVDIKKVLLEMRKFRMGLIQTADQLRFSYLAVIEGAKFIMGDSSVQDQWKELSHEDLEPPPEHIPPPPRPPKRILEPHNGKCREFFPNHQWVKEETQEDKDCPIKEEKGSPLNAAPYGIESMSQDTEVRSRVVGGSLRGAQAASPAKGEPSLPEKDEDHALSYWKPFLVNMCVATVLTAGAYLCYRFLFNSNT

Bel-7402 = assay: Cytotoxicity against human Bel7402 cells at 10 uM after 96 hrs by MTT assay; format: functional, cell-based
A2780 = assay: Cytotoxicity against human A2780 cells at 10 uM after 96 hrs by MTT assay; format: functional, cell-based

CC(C)=CCC[C@@](O)(CO[C@@H]1O[C@H](CO)[C@@H](O)[C@H](O)[C@H]1O)[C@H]1CC[C@]2(C)[C@@H]1CC[C@@H]1[C@@]3(C)CC[C@H](O[C@@H]4OC[C@H](O)[C@H](O[C@@H]5OC[C@@H](O)[C@H](O)[C@H]5O)[C@H]4O[C@@H]4O[C@@H](C)[C@H](O)[C@@H](O)[C@H]4O)C(C)(C)[C@@H]3CC[C@]12C
inactive: Activity (HCT-8) | Activity (BGC-823) | inhibition [1] | Activity (A549) | inhibition [2] | Activity (Bel-7402) | Activity (A2780)

CC(=O)OC[C@H]1O[C@@H](O[C@H]2CC[C@]3(C)[C@H]4CC[C@@H]5[C@@H]([C@](O)(CO)CCC=C(C)C)CC[C@@]5(C)[C@]4(C)CC[C@H]3C2(C)C)[C@H](O[C@@H]2O[C@@H](C)[C@H](O)[C@@H](O)[C@H]2O)[C@@H](O[C@@H]2OC[C@@H](O)[C@H](O)[C@H]2O)[C@@H]1O
inactive: Activity (HCT-8) | Activity (BGC-823) | inhibition [1] | Activity (A549) | inhibition [2] | Activity (Bel-7402) | Activity (A2780)

CC(C)=CCC[C@@](O)(CO[C@@H]1O[C@H](CO[C@@H]2O[C@H](CO)[C@@H](O)[C@H](O)[C@H]2O)[C@@H](O)[C@H](O)[C@H]1O)[C@H]1CC[C@]2(C)[C@@H]1CC[C@@H]1[C@@]3(C)CC[C@H](O[C@@H]4O[C@H](CO)[C@@H](O)[C@H](O[C@@H]5OC[C@@H](O)[C@H](O)[C@H]5O)[C@H]4O[C@@H]4O[C@@H](C)[C@H](O)[C@@H](O)[C@H]4O)C(C)(C)[C@@H]3CC[C@]12C
inactive: Activity (HCT-8) | Activity (BGC-823) | inhibition [1] | Activity (A549) | inhibition [2] | Activity (Bel-7402) | Activity (A2780)

CC(C)=C[C@@H]1C[C@](O)([C@H]2CC[C@]3(C)[C@@H]2CC[C@@H]2[C@@]4(C)CC[C@H](O[C@@H]5O[C@H](CO)[C@@H](O)[C@H](O[C@@H]6OC[C@@H](O)[C@H](O)[C@H]6O)[C@H]5O)C(C)(C)[C@@H]4CC[C@]23C)C(=O)O1
inactive: Activity (HCT-8) | Activity (BGC-823) | inhibition [1] | Activity (A549) | inhibition [2] | Activity (Bel-7402) | Activity (A2780)

CC(C)=CCC[C@@](O)(CO)[C@H]1CC[C@]2(C)[C@@H]1CC[C@@H]1[C@@]3(C=O)CC[C@H](O[C@@H]4OC[C@H](O)[C@H](O[C@@H]5OC[C@@H](O)[C@H](O)[C@H]5O)[C@H]4O)C(C)(C)[C@@H]3CC[C@]12C
inactive: Activity (HCT-8) | Activity (BGC-823) | inhibition [1] | Activity (A549) | inhibition [2] | Activity (Bel-7402) | Activity (A2780)

CC(C)=C[C@@H]1C[C@](O)([C@H]2CC[C@]3(C)[C@@H]2CC[C@@H]2[C@@]4(C)CC[C@H](O[C@@H]5OC[C@H](O)[C@H](O[C@@H]6OC[C@@H](O)[C@H](O)[C@H]6O)[C@H]5O[C@@H]5O[C@@H](C)[C@H](O)[C@@H](O)[C@H]5O)C(C)(C)[C@@H]4CC[C@]23C)C(=O)O1
inactive: Activity (HCT-8) | Activity (BGC-823) | inhibition [1] | Activity (A549) | inhibition [2] | Activity (Bel-7402) | Activity (A2780)

CC(C)=CCC[C@@](O)(CO)[C@H]1CC[C@]2(C)[C@@H]1CC[C@@H]1[C@@]3(C)CC[C@H](O[C@@H]4OC[C@H](O)[C@H](O[C@@H]5OC[C@@H](O)[C@H](O)[C@H]5O)[C@H]4O[C@@H]4O[C@@H](C)[C@H](O)[C@@H](O)[C@H]4O)C(C)(C)[C@@H]3CC[C@]12C
inactive: Activity (HCT-8) | Activity (BGC-823) | inhibition [1] | Activity (A549) | inhibition [2] | Activity (Bel-7402) | Activity (A2780)

CC(C)=C[C@H]1C[C@](O)([C@H]2CC[C@]3(C)[C@@H]2CC[C@@H]2[C@@]4(C)CC[C@H](O[C@@H]5OC[C@H](O)[C@H](O[C@@H]6OC[C@@H](O)[C@H](O)[C@H]6O)[C@H]5O[C@@H]5O[C@@H](C)[C@H](O)[C@@H](O)[C@H]5O)C(C)(C)[C@@H]4CC[C@]23C)C(=O)O1
inactive: Activity (HCT-8) | Activity (BGC-823) | inhibition [1] | Activity (A549) | inhibition [2] | Activity (Bel-7402) | Activity (A2780)

CC(C)=CCC[C@@](O)(CO[C@@H]1O[C@H](CO)[C@@H](O)[C@H](O)[C@H]1O)[C@H]1CC[C@]2(C)[C@@H]1CC[C@@H]1[C@@]3(C=O)CC[C@H](O[C@@H]4O[C@H](CO)[C@@H](O)[C@H](O[C@@H]5OC[C@@H](O)[C@H](O)[C@H]5O)[C@H]4O[C@@H]4O[C@@H](C)[C@H](O)[C@@H](O)[C@H]4O)C(C)(C)[C@@H]3CC[C@]12C
inactive: Activity (HCT-8) | Activity (BGC-823) | inhibition [1] | Activity (A549) | inhibition [2] | Activity (Bel-7402) | Activity (A2780)
